Here are results for 59 compounds from US7888363B2, “Viral polymerase inhibitors” (Boehringer Ingelheim International GmbH, priority 2003, dated 2011).

hepatitis C virus RNA dependant polymerase (NS5B), sequence (P26663 2420-3010): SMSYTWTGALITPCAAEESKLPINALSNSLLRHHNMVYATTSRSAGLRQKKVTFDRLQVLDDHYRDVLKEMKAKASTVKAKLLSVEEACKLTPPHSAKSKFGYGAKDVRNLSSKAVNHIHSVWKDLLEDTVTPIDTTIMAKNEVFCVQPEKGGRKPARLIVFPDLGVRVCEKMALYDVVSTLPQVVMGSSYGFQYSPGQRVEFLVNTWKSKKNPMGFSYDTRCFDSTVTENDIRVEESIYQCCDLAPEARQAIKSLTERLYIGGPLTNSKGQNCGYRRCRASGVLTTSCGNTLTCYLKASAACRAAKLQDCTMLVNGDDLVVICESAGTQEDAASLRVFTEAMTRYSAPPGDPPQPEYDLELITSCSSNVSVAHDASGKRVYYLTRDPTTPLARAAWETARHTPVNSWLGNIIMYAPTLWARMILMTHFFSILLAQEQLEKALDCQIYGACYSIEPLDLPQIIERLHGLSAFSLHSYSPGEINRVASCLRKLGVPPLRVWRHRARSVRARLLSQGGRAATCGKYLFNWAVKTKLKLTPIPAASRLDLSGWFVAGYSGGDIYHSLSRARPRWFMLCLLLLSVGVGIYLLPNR

One experiment addresses hepatitis C virus RNA dependant polymerase (NS5B) (Hepatitis C virus genotype 1b, UniProt P26663). The experiment can be described thus: Inhibition of NS5B RNA dependent RNA polymerase activity. It is filed as biochemical. The settings on record: Table 4; class ranges. As for the experimental part:
A suitable assay is described in the examples.
Inhibition of NS5B RNA Dependent RNA Polymerase Activity
The compounds of the invention were tested for inhibitory activity against the hepatitis C virus RNA dependant polymerase (NS5B), according to protocol described in WO 03/010141
The IC50 is the midpoint of a concentration-inhibition curve. Low values mean greater potency, high ones weaker potency. As for `COc1cc(CNC(=O)c2ccc3c(C4CCCCC4)c(-c4ccoc4)n(CC(=O)N4CCOCC4)c3c2)ccc1O` [Example 4064], the IC50 lay in the range of 200 to 1000 nM. `O=C(NC(=O)c1ccc2c(C3CCCCC3)c(-c3ccoc3)n(CC(=O)N3CCOCC3)c2c1)c1ccccc1` [Example 4065]: the IC50 lay within 1000 to 10000 nM. Regarding `O=C(O)C=Cc1ccc2nc(C3(NC(=O)c4ccc5c(C6CCCCC6)c(-c6ccoc6)n(CC(=O)N6CCOCC6)c5c4)CCC3)[nH]c2c1` [Example 4067], the IC50 is below 200 nM. `CN1CCC(NC(=O)c2ccc3c(C4CCCC4)c(-c4ccoc4)n(CC(=O)N4CCOCC4)c3c2)(c2nc3ccc(C=CC(=O)O)cc3[nH]2)C1` (centres unmarked) [Example 4068] returned an IC50 below 200 nM. The compound `CN1CCC(NC(=O)c2ccc3c(C4CCCCC4)c(-c4ccoc4)n(CC(=O)N4CCOCC4)c3c2)(c2nc3ccc(C=CC(=O)O)cc3[nH]2)C1` (centres unmarked) [Example 4069] had an IC50 below 200 nM. As for `O=C(O)C=Cc1ccc2nc(C3(NC(=O)c4ccc5c(C6CCCC6)c(-c6ccoc6)n(CC(=O)N6CCOCC6)c5c4)CCC3)[nH]c2c1` [Example 4070], the IC50 was below 200 nM. The same measure, in the same setting: under `C#CC1(NC(=O)c2ccc3c(C4CCCCC4)c(-c4ccoc4)n(CC(=O)N4CCOCC4)c3c2)CCCCC1` [Example 4071] stands 200 to 1000 nM. For `NC(=O)C1(NC(=O)c2ccc3c(C4CCCCC4)c(-c4ccoc4)n(CC(=O)N4CCOCC4)c3c2)CCCC1` [Example 4072], the IC50 was below 200 nM.

As to `COC(=O)C1(NC(=O)c2ccc3c(C4CCCCC4)c(-c4ccoc4)n(CC(=O)N4CCOCC4)c3c2)CCCC1` [Example 4073], the IC50 lay within 200 to 1000 nM. `O=C(NC1(C(=O)O)CCCC1)c1ccc2c(C3CCCCC3)c(-c3ccoc3)n(CC(=O)N3CCOCC3)c2c1` [Example 4074] had an IC50 of 200 to 1000 nM.

`COC(=O)C(C)(C)NC(=O)c1ccc2c(C3CCCCC3)c(-c3ccoc3)n(CC(=O)N3CCOCC3)c2c1` [Example 4075] returned an IC50 of 200 to 1000 nM. Same read-out and setting: under `COC(=O)C1(NC(=O)c2ccc3c(C4CCCCC4)c(-c4ccoc4)n(CC(=O)N4CCOCC4)c3c2)CCCCC1` [Example 4076] stands 200 to 1000 nM.

As to `CC(C)(NC(=O)c1ccc2c(C3CCCCC3)c(-c3ccoc3)n(CC(=O)N3CCOCC3)c2c1)C(N)=O` [Example 4077], the IC50 was below 200 nM.

Consider `O=C(NC1(C(=O)O)CCCCC1)c1ccc2c(C3CCCCC3)c(-c3ccoc3)n(CC(=O)N3CCOCC3)c2c1` [Example 4078], for which the IC50 was 200 to 1000 nM.

In turn, `NC(=O)C1(NC(=O)c2ccc3c(C4CCCCC4)c(-c4ccoc4)n(CC(=O)N4CCOCC4)c3c2)CCCCC1` [Example 4079] gave an IC50 of 200 to 1000 nM. `COC(=O)C1(NC(=O)c2ccc3c(C4CCCCC4)c(-c4ccoc4)n(CC(=O)N4CCOCC4)c3c2)COCOC1` [Example 4080] displayed an IC50 of 200 to 1000 nM. Turning to `CC(C)(NC(=O)c1ccc2c(C3CCCCC3)c(-c3ccoc3)n(CC(=O)N3CCC(N4CCCC4)CC3)c2c1)C(N)=O` [Example 4081], the IC50 is below 200 nM.

As for `Cn1c(C2(NC(=O)c3ccc4c(C5CCCCC5)c(-c5ccoc5)n(CC(=O)N5CCOCC5)c4c3)CCC2)nc2ccc(C=CC(=O)O)cc21` [Example 4082], the IC50 was below 200 nM. Turning to `O=C(NC1(C(=O)O)COCOC1)c1ccc2c(C3CCCCC3)c(-c3ccoc3)n(CC(=O)N3CCOCC3)c2c1` [Example 4083], the IC50 is below 200 nM. For the compound `CNC(=O)C(C)(C)NC(=O)c1ccc2c(C3CCCCC3)c(-c3ccoc3)n(CC(=O)N3CCC(N4CCCC4)CC3)c2c1` [Example 4084], the IC50 is below 200 nM. With `NC(=O)C1(NC(=O)c2ccc3c(C4CCCCC4)c(-c4ccoc4)n(CC(=O)N4CCOCC4)c3c2)COCOC1` [Example 4085], the IC50 was below 200 nM.

For `CN(C)C(=O)C(C)(C)NC(=O)c1ccc2c(C3CCCCC3)c(-c3ccoc3)n(CC(=O)N3CCC(N4CCCC4)CC3)c2c1` [Example 4086], the IC50 is below 200 nM. Compound `CC(C)(NC(=O)c1ccc2c(C3CCCCC3)c(-c3ccoc3)n(CC(=O)N3CCOCC3)c2c1)C(=O)O` [Example 4087] displayed an IC50 below 200 nM. Still for that read-out and setting: under `Cc1c(C2(NC(=O)c3ccc4c(C5CCCCC5)c(-c5ccoc5)n(CC(=O)N5CCOCC5)c4c3)CCC2)oc2ccc(C(=O)O)cc12` [Example 4088] stands below 200 nM. Regarding `CNC(=O)C1(NC(=O)c2ccc3c(C4CCCCC4)c(-c4ccoc4)n(CC(=O)N4CCC(N5CCCC5)CC4)c3c2)CCC1` [Example 4089], the IC50 is below 200 nM. Still for that read-out and setting: next, `N#CC1(NC(=O)c2ccc3c(C4CCCCC4)c(-c4ccoc4)n(CC(=O)N4CCC(N5CCCC5)CC4)c3c2)CCC1` [Example 4090]: below 200 nM; `CNC(=O)C1(NC(=O)c2ccc3c(C4CCCCC4)c(-c4ccoc4)n(CC(=O)N4CCOCC4)c3c2)CCC1` [Example 4091]: 200 to 1000 nM. The same measure, in the same setting: under `NC(=O)C1(NC(=O)c2ccc3c(C4CCCCC4)c(-c4ccoc4)n(CC(=O)N4CCOCC4)c3c2)CCC1` [Example 4092] stands below 200 nM.

Turning to `CN(C)C(=O)C1(NC(=O)c2ccc3c(C4CCCCC4)c(-c4ccoc4)n(CC(=O)N4CCOCC4)c3c2)CCC1` [Example 4093], the IC50 is below 200 nM. As to `CNC(=O)C1(NC(=O)c2ccc3c(C4CCCCC4)c(-c4ccoc4)n(CC(=O)N4CCC(N5CCCC5)CC4)c3c2)CCCC1` [Example 4094], the IC50 was below 200 nM. As for `CN(C)C(=O)C1(NC(=O)c2ccc3c(C4CCCCC4)c(-c4ccoc4)n(CC(=O)N4CCC(N5CCCC5)CC4)c3c2)CCCC1` [Example 4095], the IC50 is below 200 nM. Consider `CNC(=O)C1(NC(=O)c2ccc3c(C4CCCCC4)c(-c4ccoc4)n(CC(=O)N4CCOCC4)c3c2)CCCC1` [Example 4096], for which the concentration for half-maximal inhibition (IC50) is below 200 nM. Compound `CN(C)C(=O)C1(NC(=O)c2ccc3c(C4CCCCC4)c(-c4ccoc4)n(CC(=O)N4CCOCC4)c3c2)CCCC1` [Example 4097] yielded an IC50 below 200 nM. `Cc1nc(C2(NC(=O)c3ccc4c(C5CCCCC5)c(-c5ccoc5)n(CC(=O)N5CCOCC5)c4c3)CCC2)cs1` [Example 4098] displayed a half-inhibitory concentration (IC50) of 200 to 1000 nM. `Cc1nc(C2(NC(=O)c3ccc4c(C5CCCCC5)c(-c5ccoc5)n(CC(=O)N5CCC(N6CCCC6)CC5)c4c3)CCC2)cs1` [Example 4099] registered an IC50 below 200 nM.

Compound `Cn1c(C2(NC(=O)c3ccc4c(C5CCCCC5)c(-c5ccoc5)n(CC(N)=O)c4c3)CCC2)nc2ccc(C=CC(=O)O)cc21` [Example 4100] displayed a half-maximal inhibitory concentration (IC50) below 200 nM. On to `O=C(NC1(c2csc(Nc3ccccc3)n2)CCC1)c1ccc2c(C3CCCCC3)c(-c3ccoc3)n(CC(=O)N3CCC(N4CCCC4)CC3)c2c1` [Example 4101], for which the IC50 fell in the range of 200 to 1000 nM. For `CC(=O)Nc1nc(C2(NC(=O)c3ccc4c(C5CCCCC5)c(-c5ccoc5)n(CC(=O)N5CCC(N6CCCC6)CC5)c4c3)CCC2)cs1` [Example 4102], the IC50 was below 200 nM. The compound `CNc1nc(C2(NC(=O)c3ccc4c(C5CCCCC5)c(-c5ccoc5)n(CC(=O)N5CCC(N6CCCC6)CC5)c4c3)CCC2)cs1` [Example 4103] registered a 50% inhibitory concentration (IC50) below 200 nM. Regarding `O=C(NC1(c2csc(Cc3ccccc3)n2)CCC1)c1ccc2c(C3CCCCC3)c(-c3ccoc3)n(CC(=O)N3CCC(N4CCCC4)CC3)c2c1` [Example 4104], the half-inhibitory concentration (IC50) is 1000 to 10000 nM. On the same count and under the same terms, next, `CC(C)Nc1nc(C2(NC(=O)c3ccc4c(C5CCCCC5)c(-c5ccoc5)n(CC(=O)N5CCC(N6CCCC6)CC5)c4c3)CCC2)cs1` [Example 4105]: 200 to 1000 nM; `CCc1nc(C2(NC(=O)c3ccc4c(C5CCCCC5)c(-c5ccoc5)n(CC(=O)N5CCC(N6CCCC6)CC5)c4c3)CCC2)cs1` [Example 4107]: below 200 nM; `CCOC(=O)c1nc(C2(NC(=O)c3ccc4c(C5CCCCC5)c(-c5ccoc5)n(CC(=O)N5CCC(N6CCCC6)CC5)c4c3)CCC2)cs1` [Example 4108]: 200 to 1000 nM. As to `CS(=O)(=O)NC(=O)c1ccc2c(C3CCCCC3)c(-c3ccoc3)n(CC(=O)N3CCC(N4CCCC4)CC3)c2c1` [Example 4109], the half-inhibitory concentration (IC50) is below 200 nM.

`O=C(NS(=O)(=O)c1ccccc1)c1ccc2c(C3CCCCC3)c(-c3ccoc3)n(CC(=O)N3CCC(N4CCCC4)CC3)c2c1` [Example 4110] gave an IC50 below 200 nM.

Still in this experiment, the particulars now being: Table 5; HCV NS5B polymerase.
Compound `O=C(O)c1ccc2c(C3CCCCC3)c(-c3ccoc3)n(CC(=S)N3CCOCC3)c2c1` [Example 5001] yielded a concentration for half-maximal inhibition (IC50) of 200 to 1000 nM.

`O=C(O)c1ccc2c(C3CCCCC3)c(-c3ccoc3)n(CCC(=O)N3CCOCC3)c2c1` [Example 5002] showed an IC50 of 200 to 1000 nM. Consider `CN(C)C(=O)CCn1c(-c2ccoc2)c(C2CCCCC2)c2ccc(C(=O)O)cc21` [Example 5003], for which the IC50 was 1000 to 10000 nM. Compound `C=CCn1c(-c2ccoc2)c(C2CCCCC2)c2ccc(C(=O)O)cc21` [Example 5004] had an IC50 of 200 to 1000 nM. Consider `C/C=C/Cn1c(-c2ccoc2)c(C2CCCCC2)c2ccc(C(=O)O)cc21` [Example 5005], for which the IC50 fell in the range of 1000 to 10000 nM. On to `CC(C)=CCn1c(-c2ccoc2)c(C2CCCCC2)c2ccc(C(=O)O)cc21` [Example 5006], for which the IC50 lay within 1000 to 10000 nM.

`C=C(C)Cn1c(-c2ccoc2)c(C2CCCCC2)c2ccc(C(=O)O)cc21` [Example 5007] yielded an IC50 of 200 to 1000 nM.

`CC(C(=O)N1CCOCC1)n1c(-c2ccoc2)c(C2CCCCC2)c2ccc(C(=O)O)cc21` (centres unmarked) [Example 5008] returned an IC50 of 1000 to 10000 nM. With `CC(C(=O)N(C)C)n1c(-c2ccoc2)c(C2CCCCC2)c2ccc(C(=O)O)cc21` (centres unmarked) [Example 5009], the IC50 lay within 1000 to 10000 nM.

Still in this experiment, the particulars now being: Table 6; HCV NS5B polymerase.
The compound `O=C(O)c1ccc2c(c1)c(C1CCCCC1)c(-c1ccoc1)n2CC(=O)N1CCOCC1` [Example 6001] displayed an IC50 of 200 to 1000 nM. On to `O=C(O)c1ccc2c(c1)c(C1CCCCC1)c(-c1ccoc1)n2CC(=O)N1CCC(N2CCCC2)CC1` [Example 6002], for which the IC50 was below 200 nM. The same measure, in the same setting: next, `CN(C)C(=O)Cn1c(-c2ccoc2)c(C2CCCCC2)c2cc(C(=O)O)ccc21` [Example 6003]: 200 to 1000 nM.

Still in this experiment, the particulars now being: Table 7; class ranges.
As to `COc1cc2c(C3CCCCC3)c(-c3ccoc3)n(CC(=O)N3CCOCC3)c2cc1C(=O)O` [Example 7002], the IC50 lay in the range of 200 to 1000 nM. Consider `COc1cc2c(C3CCCCC3)c(-c3ccoc3)n(CC(=O)N3CCC(N4CCCC4)CC3)c2cc1C(=O)O` [Example 7003], for which the IC50 fell in the range of 200 to 1000 nM.
